Here are results for 8 compounds from US20240262842A1, “SMALL MOLECULE INHIBITORS OF KRAS G12C MUTANT” (Merck Sharp & Dohme LLC, priority 2021, published 2024).

Like-named read-outs stand apart in the source and are kept apart here.

For orientation: IC50 means the point on the concentration scale where inhibition reaches its midpoint.

In assay [1] the target is T1, interaction between GMPPNP-bound recombinant K-Ras4B G12C mutant protein and cRAF RAS-binding domain (cRAF-RBD) (Homo sapiens, UniProt P01116, G12C).
T1 construct: His-tag (N)
The assay is described as follows: Inhibitory activity on interaction between KRAS G12C and cRAF (Alpha technology). As to conditions: Table 2-1. On the procedure:
Interaction between recombinant K-Ras4B G12C mutant protein (amino acids 1-169, SEQ ID NO:2) and cRAF RAS-binding domain (cRAF-RBD, amino acids 50-132, Jena Biosciences GmbH) was measured using Alpha technology (PerkinElmer Inc.).
Recombinant KRAS G12C protein with an N-terminal His-tag was expressed in E. coli and purified by affinity chromatography. To prepare GTP-bound form and GDP-bound form of KRAS G12C protein, 50 μM KRAS G12C protein was incubated with 1 mM GMPPNP (Guanosine-5′-[(β,γ)-imido]triphosphate, Tetralithium salt) (Jena Bioscience GmbH) and 1 mM GDP, respectively, in a loading buffer (20 mM Tris-HCl (pH 7.5), 50 mM NaCl, 1 mM DTT and 2.5 mM EDTA) for 1 hour on ice. After the incubation, MgCl2 was added to a final concentration of 10 mM, followed by incubation at room temperature for 30 minutes. The mixture was allowed to pass through a NAP-5 column to remove free nucleotides and purified, and the resultant nucleotide-bound KRAS G12C protein was used for compound evaluation.
For the measurement of the inhibitory activity of compounds on interaction between KRAS G12C and cRAF-RBD, GMPPNP-bound KRAS G12C protein was incubated with various concentrations of compound in a reaction buffer (20 mM Tris-HCl (pH 7.5), 100 mM NaCl, 1 mM MgCl2, 1 mM TCEP, 0.1% Tween 20) at 25° C. for 1 hour. After the incubation, recombinant cRAF-RBD and Alpha detection reagents were added and incubated at room temperature for 1.5 hours for binding. Interaction of KRAS G12C and cRAF-RBD was monitored by measuring Alpha signal. Inhibition % was calculated using the signal from the reaction without test compound (DMSO control) as 0% inhibition and the signal from the reaction using GDP-bound KRAS G12C in place of GMPPNP-bound KRAS G12C as 100% inhibition. IC50 values were calculated from dose titration curve using curve fitting by XLfit software (IDBS).

The test system of the next assay is MIA PaCa-2 cells. Kind of assay: Growth inhibition activity on KRAS-G12C mutant cell line (CellTiter-Glo 3D). Particulars: Homo sapiens, MIA PaCa-2, 72 h, MIA PaCa-2, 3-day culture with compound; Table 3-1. It is filed as cell-based, human. The procedure: MIA PaCa-2 cells (given by Sumitomo Dainippon Pharma Co., Ltd.), which are a KRAS-G12C mutant human pancreas cancer cell line, were suspended in a 10% fetal bovine serum-containing RPMI1640 medium (manufactured by Fujifilm Wako Pure Chemical Corporation). The cell suspension was seeded into each well of a 384-well U bottom microplate and cultured in an incubator containing 5% CO2 gas at 37° C. for 1 day. The compounds obtained in the “Preparation of Compounds” section were used as test compounds and were dissolved in DMSO, respectively, and each test compound was diluted with DMSO to give a concentration 500 times the final concentration. The resultant solution of the test compound in DMSO was diluted with the medium used for suspending cells and added to each well of the cell-culture plate to give a DMSO final concentration of 0.2%, followed by culture in an incubator containing 5% CO2 gas at 37° C. for another 3 days. The cell count after 3-day culture in the presence of the test compound was measured using CellTiter-Glo 3D Reagent (manufactured by Promega Corporation). All wells were added with CellTiter-Glo 3D Reagent and mixed for 10 minutes. 30 minutes after mixing, luminescence was measured by a plate reader. The growth inhibition rate was calculated from the following equation, and the concentration of the test compound at which 50% inhibition was achieved (IC50 (nM)) was determined.
[formula] • T: the emission intensity in a well into which a test compound was added. • C: the emission intensity in a well into which a test compound was not added.
(In general: Cellular ATP, detected with luciferase, serves as a proxy for viable cell number.)

Setting [2] is: GMPPNP-bound KRAS G12C incubated with compound 25° C. 1 hour, read-out: IC50.

T1 sequence (P01116 with tags, fused parts or gaps isoform P01116-2 G12C): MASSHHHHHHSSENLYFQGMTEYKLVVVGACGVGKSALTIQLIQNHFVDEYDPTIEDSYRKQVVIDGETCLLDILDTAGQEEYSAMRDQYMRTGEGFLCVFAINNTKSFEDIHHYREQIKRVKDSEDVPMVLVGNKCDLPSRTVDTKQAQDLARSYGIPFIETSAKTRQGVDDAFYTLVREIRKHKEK

Take `Cc1nc2c3c(c(C(F)(F)F)cc2n1C)-c1cccn2c(C(=O)c4cc(F)c(NC(=O)/C=C/CNC(C)(C)CF)c(F)c4)cc(c12)CCO3` [Example 56]: the concentration for half-maximal inhibition (IC50) in assay [1] (setting [2]) came out at 12.4 nM; with MIA PaCa-2 cells, 12.6 nM.

`Cn1cnc2c3c(c(C(F)(F)F)cc21)-c1cccn2c(C(=O)c4cc(F)c(NC(=O)/C=C/CN[C@@H]5[C@@H]6COC[C@@H]65)c(F)c4)cc(c12)CCO3` [Example 156, (E)-4-(((1R,5S,6s)-3-oxabicyclo[3.1.0]hexan-6-yl)amino)-N-(2,6-difluoro-4-(9-methyl-7-(trifluoromethyl)-13,14-dihydro-9H-imidazo-[4″,5″:5′,6′]benzo[1′,2′: 2,3]oxocino[4,5,6-hi]-indolizine-2-carbonyl)-phenyl)but-2-enamide]: the IC50 in assay [1] (setting [2]) came out at 8.06 nM; in the assay on MIA PaCa-2 cells, 10.3 nM.

For the compound `Cc1c2cc(C(F)(F)F)c3c(c2nn1C)N(C)CCc1cc(C(=O)c2cc(F)c(NC(=O)/C=C/CN[C@H]4CCOC4)c(F)c2)n2cccc-3c12` (single isomer, unassigned) [Example 154], the IC50 in assay [1] (setting [2]) came to 10.2 nM; with MIA PaCa-2 cells it was 7.93 nM.

In the case of `COc1cc2c(nc(C)n2C)c2c1-c1cccn3c(C(=O)c4cc(F)c(NC(=O)/C=C/CN[C@H]5CC[C@H](OC)CC5)c(F)c4)cc(c13)CCN2C` [Example 78, (E)-N-(2,6-difluoro-4-(7-methoxy-9,10,12-tri-methyl-9,12,13,14-tetra-hydroimidazo[4″,5″:5′,6′]-benzo[1′,2′:2,3]azocino-[4,5,6-hi]indolizine-2-carbonyl)phenyl)-4-(((1r,4r)-4-methoxycyclo-hexyl)amino)but-2-en-amide], the figures for the concentration for half-maximal inhibition (IC50) (in assay [1] (setting [2]); with MIA PaCa-2 cells) were 33.7 nM and 6.92 nM, respectively.

For the compound `Cc1cc2c(nc(C)n2C)c2c1-c1cccc3c(C(=O)c4cc(F)c(NC(=O)/C=C/CNC5CCOC5(C)C)c(F)c4)cn(c13)CCN2C` (stereo not shown) [Example 123, (E)-N-(2,6-difluoro-4-(6,8,9,11-tetramethyl-8,11,12,13-tetrahydro-imidazo[4″,5″:5′,6′]benzo-[1′,2′:5,6][1,4]diazocino-[7,8,1-hi]indole-2-carbon-yl)phenyl)-4-((2,2-dimeth-yltetrahydrofuran-3-yl)-amino)but-2-enamide], the IC50 in assay [1] (IC50, GMPPNP-bound KRAS G12C incubated with compound 25° C. 1 hour) was determined as 41.8 nM; in the assay on MIA PaCa-2 cells, 35 nM.

Regarding `Cc1c2c3c(cccn3c1C(=O)c1cc(F)c(NC(=O)/C=C/CNC3(C)COC3)c(F)c1)-c1c(C(F)(F)F)cc3c(nc(C)n3C)c1OCC2` [Example 58, (E)-N-(2,6-difluoro-4-(1,9,10-trimethyl-7-(tri-fluoromethyl)-13,14-dihydro-9H-imidazo-[4″,5″:5′,6′]benzo[1′,2′: 2,3]oxocino[4,5,6-hi]-indolizine-2-carbonyl)-phenyl)-4-((3-methyl-oxetan-3-yl)amino)but-2-enamide], the IC50 in assay [1] (setting [2]) is 77.9 nM; in the assay with MIA PaCa-2 cells, 70.2 nM.

Turning to `Cc1nnc2c3c(c(C(F)(F)F)cn12)-c1cccn2c(C(=O)c4cc(F)c(NC(=O)/C=C/CNC5(C)CC5)c(F)c4)cc(c12)CCN3C` (single isomer, unassigned) [Example 223, (E)-N-(4-(10,13-dimethyl-7-(trifluoromethyl)-14,15-dihydro-13H-[1,2,4]-triazolo[4″,3″:1′,2′]-pyrido[3′,4′:2,3]azocino-[4,5,6-hi]indolizine-2-carbonyl)-2,6-difluoro-phenyl)-4-((1-methyl-cyclopropyl)amino)but-2-enamide], the half-inhibitory concentration (IC50) in assay [1] (setting [2]) turned out to be 20.1 nM; in the assay with MIA PaCa-2 cells, 23.7 nM.

In the case of `COCCn1c(COC)nc2c3c(c(OC)cc21)-c1cccn2c(C(=O)c4cc(F)c(NC(=O)/C=C/CNC5(C)CC5)c(F)c4)cc(c12)CCN3C` (single isomer, unassigned) [Example 244], the figures for the IC50 (in assay [1] (setting [2]); with MIA PaCa-2 cells) were 15.5 nM and 10 nM, respectively.
